These results are taken from patent US20230364070A1, “PYRROLO[3,2-C]PYRIDIN-4-ONE DERIVATIVES USEFUL IN THE TREATMENT OF CANCER” (Scorpion Therapeutics, Inc., priority 2020, published 2023).

Type in all cases: cell-based
The target of one experiment is T1, pEGFR in CUTO14 cells (Homo sapiens, UniProt P00533, DUP767-769).
T1 construct: endogenous in cells; host or cells: CUTO14 cells
Nature of the experiment: Inhibitor activity on EGFR phosphorylation (pEGFR AlphaLISA, 2 h), CUTO14 cells. The protocol: CUTO14 cells were obtained from Dr. Robert C. Doebele at the University of Colorado.
Shake 350 rpm for 1 hr in the dark • 3.4 Prepare donor mix under low light conditions prior to use. Dispense 5 μL of donor mix to all the wells. Mix well on the shaker, seal and wrap in aluminum foil and incubate 1.5 hrs at room temperature in the dark • 3.5 Transfer 18.5 μL mixture to OptiPlate 384, and read using an Envision.
On the technique in general: Bead proximity is the source of the signal in Alpha formats.

The target of a further experiment is T2, Ba/F3 cells with EGFR WT (Homo sapiens, UniProt P00533).
T2 construct: expressed in transfected cells; host or cells: Ba/F3 (murine pro-B cells), retroviral transduction, puromycin selection, maintained with EGF
T2 sequence (P00533 25-1210): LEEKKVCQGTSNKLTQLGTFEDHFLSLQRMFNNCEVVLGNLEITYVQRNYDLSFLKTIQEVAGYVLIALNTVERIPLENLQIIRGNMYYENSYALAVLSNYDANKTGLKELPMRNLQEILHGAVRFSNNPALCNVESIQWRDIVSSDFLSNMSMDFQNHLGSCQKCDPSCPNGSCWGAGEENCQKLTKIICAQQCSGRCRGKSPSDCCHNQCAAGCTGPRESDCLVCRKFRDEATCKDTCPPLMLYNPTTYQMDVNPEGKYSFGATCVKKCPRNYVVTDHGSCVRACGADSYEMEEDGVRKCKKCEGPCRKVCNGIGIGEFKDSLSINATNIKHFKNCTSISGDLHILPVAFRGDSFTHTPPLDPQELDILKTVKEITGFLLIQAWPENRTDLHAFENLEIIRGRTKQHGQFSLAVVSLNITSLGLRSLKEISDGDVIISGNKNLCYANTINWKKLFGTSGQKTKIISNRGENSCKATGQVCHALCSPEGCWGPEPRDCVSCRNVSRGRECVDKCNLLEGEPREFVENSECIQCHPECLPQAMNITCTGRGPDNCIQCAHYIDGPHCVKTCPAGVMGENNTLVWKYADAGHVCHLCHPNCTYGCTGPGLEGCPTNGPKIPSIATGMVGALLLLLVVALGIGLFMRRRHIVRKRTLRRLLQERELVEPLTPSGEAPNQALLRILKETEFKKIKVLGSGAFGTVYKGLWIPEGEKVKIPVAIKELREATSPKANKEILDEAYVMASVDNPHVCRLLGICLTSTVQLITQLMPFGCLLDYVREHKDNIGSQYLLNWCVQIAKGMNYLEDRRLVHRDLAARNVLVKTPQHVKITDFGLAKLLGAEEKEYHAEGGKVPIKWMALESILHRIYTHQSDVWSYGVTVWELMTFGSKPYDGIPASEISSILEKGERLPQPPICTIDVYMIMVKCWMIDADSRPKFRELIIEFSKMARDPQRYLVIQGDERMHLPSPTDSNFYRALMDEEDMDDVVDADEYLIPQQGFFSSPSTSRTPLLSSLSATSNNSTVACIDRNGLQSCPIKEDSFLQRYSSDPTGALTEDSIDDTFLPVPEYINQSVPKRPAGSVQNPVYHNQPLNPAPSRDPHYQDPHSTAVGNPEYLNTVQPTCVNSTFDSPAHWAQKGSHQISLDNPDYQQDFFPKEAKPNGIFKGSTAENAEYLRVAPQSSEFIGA
Description: EGFR activity: Ba/F3 cell viability (CellTiter-Glo, 72 h), EGFR WT. The conditions noted are these: read-out: BaF3 WT IC50. For orientation: Cellular ATP, detected with luciferase, serves as a proxy for viable cell number.

The target in experiment [1] is T3, Ba/F3 cells with EGFR exon 20 NPG Ins D770_N771 (Homo sapiens, UniProt P00533, INS770NPG).
T3 construct: expressed in transfected cells; host or cells: Ba/F3 (murine pro-B cells), retroviral transduction, puromycin selection, IL3-independent pool
T3 sequence (P00533 with tags, fused parts or gaps INS770NPG): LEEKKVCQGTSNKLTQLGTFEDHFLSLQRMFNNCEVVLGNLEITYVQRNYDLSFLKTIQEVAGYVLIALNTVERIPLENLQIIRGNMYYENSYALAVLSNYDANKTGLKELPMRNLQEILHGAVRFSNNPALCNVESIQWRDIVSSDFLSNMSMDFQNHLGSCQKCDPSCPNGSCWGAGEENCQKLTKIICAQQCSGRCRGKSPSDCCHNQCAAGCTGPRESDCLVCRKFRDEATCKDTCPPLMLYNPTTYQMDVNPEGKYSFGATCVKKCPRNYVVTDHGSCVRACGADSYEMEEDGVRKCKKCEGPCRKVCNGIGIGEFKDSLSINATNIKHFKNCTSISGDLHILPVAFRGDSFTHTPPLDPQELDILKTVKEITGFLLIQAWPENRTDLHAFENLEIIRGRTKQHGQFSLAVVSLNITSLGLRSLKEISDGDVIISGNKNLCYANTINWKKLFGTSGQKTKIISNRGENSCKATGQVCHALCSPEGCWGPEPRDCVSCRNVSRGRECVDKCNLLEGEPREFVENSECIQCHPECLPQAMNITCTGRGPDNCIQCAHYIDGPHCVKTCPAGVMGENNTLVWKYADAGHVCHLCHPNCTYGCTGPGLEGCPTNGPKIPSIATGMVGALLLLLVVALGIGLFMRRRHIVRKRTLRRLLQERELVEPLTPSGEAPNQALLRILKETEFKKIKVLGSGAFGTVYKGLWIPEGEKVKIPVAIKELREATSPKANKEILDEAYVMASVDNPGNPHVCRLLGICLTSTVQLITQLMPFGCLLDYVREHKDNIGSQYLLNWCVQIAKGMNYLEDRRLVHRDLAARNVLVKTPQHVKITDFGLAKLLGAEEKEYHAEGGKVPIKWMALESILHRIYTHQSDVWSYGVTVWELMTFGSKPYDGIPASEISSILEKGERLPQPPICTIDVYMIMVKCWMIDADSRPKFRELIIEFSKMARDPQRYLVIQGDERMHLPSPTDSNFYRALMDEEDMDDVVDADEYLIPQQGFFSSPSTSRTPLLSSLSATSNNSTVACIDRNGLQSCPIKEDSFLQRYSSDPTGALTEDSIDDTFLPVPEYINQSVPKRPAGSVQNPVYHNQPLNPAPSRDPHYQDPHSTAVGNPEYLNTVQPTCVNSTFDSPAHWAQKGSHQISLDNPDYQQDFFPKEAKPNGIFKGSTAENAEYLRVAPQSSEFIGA
Description: EGFR activity: Ba/F3 cell viability (CellTiter-Glo, 72 h), EGFR exon 20 NPG insertion. The conditions noted are these: EGFR exon 20 NPG Ins D770_N771, cell viability, read-out: BaF3 NPG IC50.

In experiment [2] the target is T4, Ba/F3 cells with EGFR exon 20 ASV Ins V769_D770 (Homo sapiens, UniProt P00533, INS769ASV).
T4 construct: expressed in transfected cells; host or cells: Ba/F3 (murine pro-B cells), retroviral transduction, puromycin selection, IL3-independent pool
T4 sequence (P00533 with tags, fused parts or gaps INS769ASV): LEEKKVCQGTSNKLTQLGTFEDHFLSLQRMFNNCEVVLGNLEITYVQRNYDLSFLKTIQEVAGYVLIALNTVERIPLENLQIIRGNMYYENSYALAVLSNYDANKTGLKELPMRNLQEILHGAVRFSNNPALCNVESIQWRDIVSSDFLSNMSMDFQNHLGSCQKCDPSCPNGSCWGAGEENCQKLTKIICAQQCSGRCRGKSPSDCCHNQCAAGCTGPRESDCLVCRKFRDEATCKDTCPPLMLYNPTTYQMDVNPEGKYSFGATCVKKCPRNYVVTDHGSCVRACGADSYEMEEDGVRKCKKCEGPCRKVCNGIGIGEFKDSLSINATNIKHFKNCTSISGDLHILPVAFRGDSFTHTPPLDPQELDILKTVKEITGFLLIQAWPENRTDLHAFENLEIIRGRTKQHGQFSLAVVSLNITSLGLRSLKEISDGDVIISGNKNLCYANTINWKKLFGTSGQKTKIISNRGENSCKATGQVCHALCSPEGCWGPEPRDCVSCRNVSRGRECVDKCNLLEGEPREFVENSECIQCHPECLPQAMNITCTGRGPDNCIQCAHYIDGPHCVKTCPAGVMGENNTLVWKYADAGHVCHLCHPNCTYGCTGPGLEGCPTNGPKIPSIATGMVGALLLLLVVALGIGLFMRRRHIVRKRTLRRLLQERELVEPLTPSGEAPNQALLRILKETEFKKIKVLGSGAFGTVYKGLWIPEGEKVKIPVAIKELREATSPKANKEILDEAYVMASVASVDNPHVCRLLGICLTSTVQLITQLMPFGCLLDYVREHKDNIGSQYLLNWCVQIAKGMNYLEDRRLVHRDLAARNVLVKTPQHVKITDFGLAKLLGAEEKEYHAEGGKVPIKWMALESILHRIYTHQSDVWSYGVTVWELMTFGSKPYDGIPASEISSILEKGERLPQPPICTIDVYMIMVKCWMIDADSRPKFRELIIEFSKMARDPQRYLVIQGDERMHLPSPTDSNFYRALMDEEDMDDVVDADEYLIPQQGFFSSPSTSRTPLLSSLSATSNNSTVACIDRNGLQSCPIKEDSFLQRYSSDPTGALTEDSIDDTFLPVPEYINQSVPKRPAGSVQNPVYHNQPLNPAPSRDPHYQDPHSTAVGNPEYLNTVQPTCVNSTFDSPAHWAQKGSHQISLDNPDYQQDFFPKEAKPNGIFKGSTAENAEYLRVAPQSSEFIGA
Description: EGFR activity: Ba/F3 cell viability (CellTiter-Glo, 72 h), EGFR exon 20 ASV insertion. The conditions noted are these: EGFR exon 20 ASV Ins V769_D770, cell viability, read-out: BaF3 ASV IC50.

The structures appear in SMILES notation.

T1 sequence (P00533 with tags, fused parts or gaps DUP767-769): as the sequence (P00533 with tags, fused parts or gaps INS769ASV) above

On pEGFR in CUTO14 cells, `C=CC(=O)N1CCC1(C)COc1cnccc1-c1[nH]c2c(c1Nc1cccc(F)c1CC)C(=O)NCC2` (single isomer, unassigned) [compound 359] showed an IC50 of less than 0.1 µM.
`C=CC(=O)N1CC2CC1(C#Cc1cnccc1-c1[nH]c3c(c1Nc1cccc(F)c1OC)C(=O)NCC3)C2` [compound 318, 3-[(3-fluoro-2-methoxyphenyl)amino]-2-(3-{2-[2-(prop-2-enoyl)-2-azabicyclo[2.1.1]hexan-1-yl]ethynyl}pyridin-4-yl)-1H,5H,6H,7H-pyrrolo[3,2-c]pyridin-4-one] registered a concentration for half-maximal inhibition (IC50) against pEGFR in CUTO14 cells of less than 0.1 µM.
Consider `C=CC(=O)N1CC[C@@]1(C)C#Cc1cnccc1-c1[nH]c2c(c1Nc1cccc(Cl)c1OC)C(=O)NCC2` [compound 550, 3-[(3-chloro-2-methoxyphenyl)amino]-2-(3-{2-[(2S)-2-methyl-1-(prop-2-enoyl)azetidin-2-yl]ethynyl}pyridin-4-yl)-1H,5H,6H,7H-pyrrolo[3,2-c]pyridin-4-one], for which, at pEGFR in CUTO14 cells, the IC50 is greater than 1 µM.
Same read-out and setting: for `COc1c(Cl)cccc1Nc1c(-c2ccncc2C#C[C@H]2C[C@@H]3C[C@@H]3N2C(=O)/C=C/CN(C)C)[nH]c2c1C(=O)NCC2` [compound 466, 3-[(3-chloro-2-methoxyphenyl)amino]-2-(3-{2-[(1S,3R,5S)-2-[(2E)-4-(dimethylamino)but-2-enoyl]-2-azabicyclo[3.1.0]hexan-3-yl]ethynyl}pyridin-4-yl)-1H,5H,6H,7H-pyrrolo[3,2-c]pyridin-4-one] the value was less than 0.1 µM; for `C=CC(=O)N1CC[C@]1(C)C#Cc1cnccc1-c1[nH]c2c(c1Nc1cccc(Cl)c1OC)C(=O)NCC2` [compound 551, 3-[(3-chloro-2-methoxyphenyl)amino]-2-(3-{2-[(2R)-2-methyl-1-(prop-2-enoyl)azetidin-2-yl]ethynyl}pyridin-4-yl)-1H,5H,6H,7H-pyrrolo[3,2-c]pyridin-4-one], greater than 1 µM.
For `C=CC(=O)N1[C@H](C)CC[C@H]1C#Cc1cnccc1-c1[nH]c2c(c1Nc1cccc(Cl)c1OC)C(=O)NCC2` [compound 239, 3-[(3-chloro-2-methoxyphenyl)amino]-2-(3-{2-[(2S,5R)-5-methyl-1-(prop-2-enoyl)pyrrolidin-2-yl]ethynyl}pyridin-4-yl)-1H,5H,6H,7H-pyrrolo[3,2-c]pyridin-4-one], the IC50 (on Ba/F3 cells with EGFR WT; in experiment [1]; in experiment [2]) was less than 0.1 µM each time.
With `COc1c(Cl)cccc1Nc1c(-c2ccncc2C#C[C@@]2(C)CCCN2C(=O)/C=C/CN2CC(F)(F)C2)[nH]c2c1C(=O)NCC2` [compound 603], the IC50 at Ba/F3 cells with EGFR WT is greater than 1 µM; in experiment [1], 0.1 to 1 µM; in experiment [2] it was 0.1 to 1 µM.
For the compound `C=CC(=O)N1CCC[C@H]1COc1cnccc1-c1[nH]c2c(c1Nc1cccc(Cl)c1CC)C(=O)NCC2` [compound 216, 3-[(3-chloro-2-ethylphenyl)amino]-2-(3-{[(2S)-1-(prop-2-enoyl)pyrrolidin-2-yl]methoxy}pyridin-4-yl)-1H,5H,6H,7H-pyrrolo[3,2-c]pyridin-4-one], the 50% inhibitory concentration (IC50) on Ba/F3 cells with EGFR WT is 0.1 to 1 µM; in experiment [1], less than 0.1 µM; in experiment [2] it was less than 0.1 µM.
Consider `C=C(CN(C)C)C(=O)NC(C)(C)C#Cc1cnccc1-c1[nH]c2c(c1Nc1cccc(Cl)c1OC)C(=O)NCC2` [compound 574], for which the IC50 (at Ba/F3 cells with EGFR WT; in experiment [1]; in experiment [2]) was less than 0.1 µM throughout.
As to `COc1c(Cl)cc(F)cc1Nc1c(-c2ccncc2C#C[C@@]2(C)CCCN2C(=O)C#CCN(C)C)[nH]c2c1C(=O)NCC2` [compound 432], the IC50 at Ba/F3 cells with EGFR WT is 0.1 to 1 µM; in experiment [1] it was less than 0.1 µM; in experiment [2] it was less than 0.1 µM.
For the compound `COc1c(F)cccc1Nc1c(-c2ccncc2C#C[C@H]2CCN2C(=O)/C=C/CN(C)C)[nH]c2c1C(=O)NCC2` [compound 593], the half-inhibitory concentration (IC50) on Ba/F3 cells with EGFR WT is 0.1 to 1 µM; in experiment [1], less than 0.1 µM; in experiment [2] it was less than 0.1 µM.
For `COc1c(F)cccc1Nc1c(-c2ccncc2C#C[C@]2(C)COCCN2C(=O)/C=C/CN(C)C)[nH]c2c1C(=O)NCC2` [compound 631], the results for the IC50 (at Ba/F3 cells with EGFR WT; in experiment [1]; in experiment [2]) were 0.1 to 1 µM, less than 0.1 µM and less than 0.1 µM, respectively.
With `C=CC(=O)N1CC[C@@H]1[C@H](C)Oc1cnccc1-c1[nH]c2c(c1Nc1cccc(F)c1OC)C(=O)NCC2` [compound 310, 3-[(3-fluoro-2-methoxyphenyl)amino]-2-{3-[(1S)-1-[(2R)-1-(prop-2-enoyl)azetidin-2-yl]ethoxy]pyridin-4-yl}-1H,5H,6H,7H-pyrrolo[3,2-c]pyridin-4-one], the IC50 at Ba/F3 cells with EGFR WT is greater than 1 µM; in experiment [1] it was 0.1 to 1 µM; in experiment [2], 0.1 to 1 µM.
As to `C=CC(=O)NC1(C#Cc2cnccc2-c2[nH]c3c(c2Nc2cccc(F)c2OC)C(=O)NCC3)CC2(COC2)C1` [compound 402], the IC50 on Ba/F3 cells with EGFR WT is greater than 1 µM; in experiment [1], 0.1 to 1 µM; in experiment [2] it was 0.1 to 1 µM.
Consider `COc1c(Cl)cccc1Nc1c(-c2ccncc2C#C[C@H]2CN(C)CCO2)[nH]c2c1C(=O)NCC2` [compound 495], for which the IC50 is 0.1 to 1 µM at Ba/F3 cells with EGFR WT, less than 0.1 µM in experiment [1] and less than 0.1 µM in experiment [2].
For `COc1c(F)cccc1Nc1c(-c2ccncc2C#C[C@@]2(C)COCCN2C(=O)/C=C/CN(C)C)[nH]c2c1C(=O)NCC2` [compound 459], the IC50 at Ba/F3 cells with EGFR WT is greater than 1 µM; in experiment [1], less than 0.1 µM; in experiment [2], less than 0.1 µM.
As for `C=CC(=O)N1CCOC[C@]1(C)C#Cc1cnccc1-c1[nH]c2c(c1Nc1cccc(F)c1OC)C(=O)NCC2` [compound 460], the IC50 at Ba/F3 cells with EGFR WT was 0.1 to 1 µM; in experiment [1], less than 0.1 µM; in experiment [2], less than 0.1 µM.
`COc1c(F)cccc1Nc1c(-c2ccncc2C#C[C@H]2CCCN2C(=O)/C=C/CN(C)C)[nH]c2c1C(=O)NCC2` [compound 303, 2-(3-{2-[(2R)-1-[(2E)-4-(dimethylamino)but-2-enoyl]pyrrolidin-2-yl]ethynyl}pyridin-4-yl)-3-[(3-fluoro-2-methoxyphenyl)amino]-1H,5H,6H,7H-pyrrolo[3,2-c]pyridin-4-one]: the values for the half-inhibitory concentration (IC50) (on Ba/F3 cells with EGFR WT; in experiment [1]; in experiment [2]) were greater than 1 µM, 0.1 to 1 µM and 0.1 to 1 µM, respectively.
Consider `C=CC(=O)NC(C)(C)C#Cc1cnccc1-c1[nH]c2c(c1Nc1cc(F)cc(Cl)c1OC)C(=O)NCC2` [compound 428], for which the IC50 was 0.1 to 1 µM at Ba/F3 cells with EGFR WT, less than 0.1 µM in experiment [1] and less than 0.1 µM in experiment [2].
On to `COc1c(Cl)cccc1Nc1c(-c2ccncc2C#C[C@@]2(C)CCCN2C(=O)/C=C/CNC2COC2)[nH]c2c1C(=O)NCC2` [compound 595], for which the IC50 is greater than 1 µM at Ba/F3 cells with EGFR WT, less than 0.1 µM in experiment [1] and 0.1 to 1 µM in experiment [2].
Take `C=CC(=O)N1CCC[C@]1(C)C#Cc1cnccc1-c1[nH]c2c(c1Nc1cccc(F)c1C)C(=O)NCC2` [compound 304, 3-[(3-fluoro-2-methylphenyl)amino]-2-(3-{2-[(2R)-2-methyl-1-(prop-2-enoyl)pyrrolidin-2-yl]ethynyl}pyridin-4-yl)-1H,5H,6H,7H-pyrrolo[3,2-c]pyridin-4-one]: the IC50 (on Ba/F3 cells with EGFR WT; in experiment [1]; in experiment [2]) was less than 0.1 µM each time.
Take `Cc1c(F)cccc1Nc1c(-c2ccncc2C#CC(C)(C)C)[nH]c2c1C(=O)NCC2` [compound 499]: the IC50 on Ba/F3 cells with EGFR WT was greater than 1 µM; in experiment [1], less than 0.1 µM; in experiment [2], less than 0.1 µM.
For the compound `C=C(CN(C)C)C(=O)NC(C)(C)C#Cc1cnccc1-c1[nH]c2c(c1Nc1cccc(F)c1OC)C(=O)NCC2` [compound 575], the half-inhibitory concentration (IC50) (on Ba/F3 cells with EGFR WT; in experiment [1]; in experiment [2]) was less than 0.1 µM in each case.
For `COc1c(F)cccc1Nc1c(-c2ccncc2C#C[C@@H]2CCN2C(=O)/C=C/CN(C)C)[nH]c2c1C(=O)NCC2` [compound 594], the figures for the IC50 (on Ba/F3 cells with EGFR WT; in experiment [1]; in experiment [2]) were greater than 1 µM, less than 0.1 µM and less than 0.1 µM, respectively.
Turning to `C=CC(=O)NC1(C#Cc2cnccc2-c2[nH]c3c(c2Nc2cccc(F)c2OC)C(=O)NCC3)CCC1` [compound 262, N-{1-[2-(4-{3-[(3-fluoro-2-methoxyphenyl)amino]-4-oxo-1H,5H,6H,7H-pyrrolo[3,2-c]pyridin-2-yl}pyridin-3-yl)ethynyl]cyclobutyl}prop-2-enamide], the figures for the IC50 (on Ba/F3 cells with EGFR WT; in experiment [1]; in experiment [2]) were 0.1 to 1 µM, less than 0.1 µM and less than 0.1 µM, respectively.
For `C=CC(=O)N1[C@H](C)CC[C@@H]1C#Cc1cnccc1-c1[nH]c2c(c1Nc1cccc(F)c1OC)C(=O)NCC2` [compound 256, 3-[(3-fluoro-2-methoxyphenyl)amino]-2-(3-{2-[(2R,5R)-5-methyl-1-(prop-2-enoyl)pyrrolidin-2-yl]ethynyl}pyridin-4-yl)-1H,5H,6H,7H-pyrrolo[3,2-c]pyridin-4-one], the figures for the IC50 (at Ba/F3 cells with EGFR WT; in experiment [1]; in experiment [2]) were 0.1 to 1 µM, less than 0.1 µM and less than 0.1 µM, respectively.
For `C=CC(=O)N[C@@H](C#Cc1cnccc1-c1[nH]c2c(c1Nc1cccc(Cl)c1OC)C(=O)NCC2)CC` [compound 582], the IC50 on Ba/F3 cells with EGFR WT is greater than 1 µM; in experiment [1], less than 0.1 µM; in experiment [2], less than 0.1 µM.

In general, IC50 refers to the concentration that inhibits the measured activity by half.
